{"source": "patent US7880025B2", "about": "“Ruthenium silyl-arene complex , and method for production thereof” (Takasago International Corporation, priority 2009, dated 2011)", "assay": "Solubility of [RuCl2(arene)]2 complexes in 100 ml of solvent at 25° C. in various solvents", "data": [{"substance": "[RuCl2(mesitylene)]2", "values": [{"measurement": "solubility in 100 ml of solvent, Acetone", "setting": "solvent Acetone", "result": 0.01, "unit": "g/100 ml"}, {"measurement": "solubility in 100 ml of solvent, Chloroform", "setting": "solvent Chloroform", "result": 0.3, "unit": "g/100 ml"}, {"measurement": "solubility in 100 ml of solvent, Methanol", "setting": "solvent Methanol", "result": 0.03, "unit": "g/100 ml"}, {"measurement": "solubility in 100 ml of solvent, THF", "setting": "solvent THF", "result": 0.5, "unit": "g/100 ml"}, {"measurement": "solubility in 100 ml of solvent, Toluene", "setting": "solvent Toluene", "result": 0.2, "unit": "g/100 ml"}]}]}
